Laboratory results reported in patent US9427471B2, “Method and improved pharmaceutical composition for enhancing transdermal delivery of PDE-5 inhibitor” (Tritech Biopharmaceuticals Co., Ltd., priority 2011, dated 2016).

Experiments:
[1] = type: in vitro ADME; conditions: Sprague-Dawley, rat, 1 % (wt %)
Protocol: The permeation test was carried out using in vitro Franz diffusion cell with a diffusion area of 0.785 cm^2. A piece of rat (Sprague-Dawley) skin tissue was mounted between the two half-cells and fastened with a clamp. Aliquots of 1% (wt %) vardenafil with or without the addition of the enhancer of this disclosure, such as 0.3% (wt %) cocamidopropyl betaine, 1% (wt %) sodium lauroamphoacetate, 1% (wt %) isostearamidopropyl morpholine lactate, 1% (wt %) quaternium-60 or dipropyl glycol, were applied to the Donor compartment to start the experiment. The receiver compartment was filled with PBS and the temperature was held at 37° C. Samples were taken at certain time intervals and assayed by HPLC.

[2] = In vivo skin permeation analysis (applied to rabbit ear, vardenafil in blood); conditions: gel formulations (about 0.5 ml, blood drawn after 1 hour) or skin patch (6 hours) with enhancer(s) applied to left ear of rabbit, blood from right ear artery; FIG. 2
Protocol: In vivo skin permeation tests were carried out using the gel formulations of example 2.1 and the skin patch of example 2.2. Briefly, small aliquots (about 0.5 ml) of gel formulations #1 to 4 or a small piece of the skin patch (3 cm×5 cm×0.15 cm) was applied to the left ear of a rabbit, after certain period of time, 1 ml of blood was drawn from the rabbit's right ear artery and analyzed for the amount of vardenafil. Specifically, the blood was drawn after 1 hour when gel formulation was used; and 6 hours when skin patch was applied. Results are illustrated in FIG. 2.

CCCc1nc(C)c2c(=O)[nH]c(-c3cc(S(=O)(=O)N4CCN(CC)CC4)ccc3OCC)nn12 [vardenafil]
increase of the amount of vardenafil in the receiving side of Franz Diffusion chamber as compared with control [1]: 0.5-2 folds
increase of the amount of vardenafil found in the blood stream as compared with control [2]: 4 to 5 folds
